Structures can show the parent of a compound that is named as a salt. Where two headings read alike, the source gives them in different places.

For assay [1], the target named is T1, hSERT (Homo sapiens, UniProt P31645). Description: Inhibition of [^125I]RTI-55 binding to hSERT.
Assay [2] deals with T2, hNET (Homo sapiens, UniProt P23975). Description: biochemical. In kind it is binding.
For assay [3], the target named is T1, hSERT. Description: Release of preloaded [^3H]5-HT from HEK-hSERT cells. In kind it is cell-based. The following applies: for % maximum release, hSERT [^3H]5-HT: relative to maximum release induced by METH (0.3–1 mM).
For assay [4], the target named is T3, human 5-HT1A receptor (Homo sapiens, UniProt P08908).
T3 sequence (P08908 1-422): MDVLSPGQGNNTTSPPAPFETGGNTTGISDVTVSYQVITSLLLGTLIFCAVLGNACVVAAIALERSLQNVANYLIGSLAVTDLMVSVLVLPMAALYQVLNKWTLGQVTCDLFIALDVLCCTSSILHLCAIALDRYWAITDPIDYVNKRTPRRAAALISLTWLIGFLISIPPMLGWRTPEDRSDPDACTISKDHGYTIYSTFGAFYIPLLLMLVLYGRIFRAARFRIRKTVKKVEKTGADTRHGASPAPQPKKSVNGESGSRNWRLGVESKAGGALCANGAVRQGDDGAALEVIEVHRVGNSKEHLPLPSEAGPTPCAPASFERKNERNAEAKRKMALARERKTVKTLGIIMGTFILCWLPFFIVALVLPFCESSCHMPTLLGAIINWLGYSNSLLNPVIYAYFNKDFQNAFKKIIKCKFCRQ
Description: 5-HT1A receptor [^35S]GTPγS binding stimulation. In kind it is biochemical. A general note: GTPγS is a poorly hydrolysed GTP analogue; its binding reports G protein activation.

Assay [5] has as its target T4, hDAT (Homo sapiens, UniProt Q01959). The experiment in a line: Release of preloaded [^3H]DA from HEK-hDAT cells. In kind it is cell-based. The following applies: for % maximum release, hDAT [^3H]DA: relative to maximum release induced by METH (1–10 μM).
The target in assay [6] is T5, 5-HT2A receptor (Homo sapiens, UniProt P28223). Description: cell-based. Type of assay: cell-based.
In assay [7] the target is T3, human 5-HT1A receptor. Description: 5-HT1A receptor [^3H]8-OH-DPAT radioligand binding.
The target of assay [8] is T5, 5-HT2A receptor. The experiment in a line: biochemical. In kind it is binding.
The target in assay [9] is T4, hDAT. Description: Inhibition of [^125I]RTI-55 binding to hDAT.
Assay [10] concerns the target T2, hNET. Description: Release of preloaded [^3H]NE from HEK-hNET cells. Type of assay: cell-based. The following applies: for % maximum release, hNET [^3H]NE: relative to maximum release induced by METH (0.3–1 μM).
For assay [11], the target named is T6, 5-HT2B receptor (Homo sapiens, UniProt P41595). Description: 5-HT2B receptor inositol monophosphate. In kind it is cell-based.
The target of assay [12] is T2, hNET. Description: cell-based.
Assay [13] deals with T4, hDAT. The experiment in a line: Inhibition of [^3H]DA uptake by HEK-hDAT cells. Type of assay: cell-based.
Assay [14] has as its target T6, 5-HT2B receptor. The experiment in a line: 5-HT2B receptor [^3H]5-HT binding.
For another assay, the target named is T7, 5-HT2C receptor (Homo sapiens, UniProt P28335).
T7 sequence (P28335 33-458): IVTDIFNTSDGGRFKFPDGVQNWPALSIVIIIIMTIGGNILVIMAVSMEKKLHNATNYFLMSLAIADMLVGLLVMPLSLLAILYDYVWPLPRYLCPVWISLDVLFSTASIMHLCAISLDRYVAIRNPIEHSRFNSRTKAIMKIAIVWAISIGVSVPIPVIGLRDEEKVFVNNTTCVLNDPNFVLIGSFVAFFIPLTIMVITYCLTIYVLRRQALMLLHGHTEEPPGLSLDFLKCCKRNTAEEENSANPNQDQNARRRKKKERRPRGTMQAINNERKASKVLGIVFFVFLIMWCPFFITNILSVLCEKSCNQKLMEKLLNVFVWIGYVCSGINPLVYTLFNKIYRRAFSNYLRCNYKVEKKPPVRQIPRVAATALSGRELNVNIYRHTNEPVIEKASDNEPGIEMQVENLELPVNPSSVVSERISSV
The experiment in a line: cell-based.

In assay [15] the target is T1, hSERT. Description: Inhibition of [^3H]5-HT uptake by HEK-hSERT cells. Type of assay: cell-based.
[16] abbreviates: normalized to the maximal stimulation by 5-HT.

T6 sequence (P41595 whole entry): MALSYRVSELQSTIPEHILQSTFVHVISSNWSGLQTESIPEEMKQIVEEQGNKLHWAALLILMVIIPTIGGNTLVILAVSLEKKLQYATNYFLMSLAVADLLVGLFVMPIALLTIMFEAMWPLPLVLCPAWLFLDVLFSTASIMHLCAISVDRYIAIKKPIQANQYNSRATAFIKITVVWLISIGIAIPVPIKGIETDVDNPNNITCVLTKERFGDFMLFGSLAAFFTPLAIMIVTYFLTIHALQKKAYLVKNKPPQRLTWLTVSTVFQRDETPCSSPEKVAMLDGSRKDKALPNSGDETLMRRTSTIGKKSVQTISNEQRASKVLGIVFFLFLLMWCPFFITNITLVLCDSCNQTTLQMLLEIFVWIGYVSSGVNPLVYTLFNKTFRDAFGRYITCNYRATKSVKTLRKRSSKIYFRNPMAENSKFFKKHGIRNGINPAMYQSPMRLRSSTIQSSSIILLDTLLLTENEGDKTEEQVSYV
T1 sequence (P31645 whole entry): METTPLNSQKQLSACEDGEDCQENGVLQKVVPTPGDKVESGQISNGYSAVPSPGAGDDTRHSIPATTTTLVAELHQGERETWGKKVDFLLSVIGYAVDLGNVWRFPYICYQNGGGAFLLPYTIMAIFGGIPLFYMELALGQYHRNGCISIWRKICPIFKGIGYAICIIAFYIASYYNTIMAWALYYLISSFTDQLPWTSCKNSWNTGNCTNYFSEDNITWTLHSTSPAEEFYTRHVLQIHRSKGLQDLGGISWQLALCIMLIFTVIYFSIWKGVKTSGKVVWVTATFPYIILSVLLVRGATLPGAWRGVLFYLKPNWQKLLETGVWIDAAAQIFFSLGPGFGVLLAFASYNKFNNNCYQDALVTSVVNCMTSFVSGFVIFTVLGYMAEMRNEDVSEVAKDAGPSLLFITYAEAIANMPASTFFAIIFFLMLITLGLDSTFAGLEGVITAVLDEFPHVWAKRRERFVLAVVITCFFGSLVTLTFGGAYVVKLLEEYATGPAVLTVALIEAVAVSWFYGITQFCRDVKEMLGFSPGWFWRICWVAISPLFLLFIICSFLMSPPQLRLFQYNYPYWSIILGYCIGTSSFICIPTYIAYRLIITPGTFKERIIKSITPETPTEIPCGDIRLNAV
T4 sequence (Q01959 whole entry): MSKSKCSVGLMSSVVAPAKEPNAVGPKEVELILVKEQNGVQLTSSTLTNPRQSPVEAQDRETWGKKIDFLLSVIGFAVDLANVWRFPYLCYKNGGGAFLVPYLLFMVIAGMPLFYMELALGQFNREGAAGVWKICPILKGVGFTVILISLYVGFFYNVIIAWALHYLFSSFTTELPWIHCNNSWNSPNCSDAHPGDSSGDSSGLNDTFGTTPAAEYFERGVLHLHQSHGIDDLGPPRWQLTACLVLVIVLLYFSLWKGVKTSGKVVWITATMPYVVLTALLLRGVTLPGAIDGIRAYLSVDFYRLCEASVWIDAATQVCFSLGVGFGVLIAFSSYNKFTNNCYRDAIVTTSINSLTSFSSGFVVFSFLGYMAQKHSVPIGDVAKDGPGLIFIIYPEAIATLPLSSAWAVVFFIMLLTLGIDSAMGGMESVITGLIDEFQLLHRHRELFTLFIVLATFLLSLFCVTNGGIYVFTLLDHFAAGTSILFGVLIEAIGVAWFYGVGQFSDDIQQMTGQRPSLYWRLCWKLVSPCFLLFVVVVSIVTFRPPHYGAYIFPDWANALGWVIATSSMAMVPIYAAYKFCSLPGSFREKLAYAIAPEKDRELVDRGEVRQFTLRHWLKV
T2 sequence (P23975 whole entry): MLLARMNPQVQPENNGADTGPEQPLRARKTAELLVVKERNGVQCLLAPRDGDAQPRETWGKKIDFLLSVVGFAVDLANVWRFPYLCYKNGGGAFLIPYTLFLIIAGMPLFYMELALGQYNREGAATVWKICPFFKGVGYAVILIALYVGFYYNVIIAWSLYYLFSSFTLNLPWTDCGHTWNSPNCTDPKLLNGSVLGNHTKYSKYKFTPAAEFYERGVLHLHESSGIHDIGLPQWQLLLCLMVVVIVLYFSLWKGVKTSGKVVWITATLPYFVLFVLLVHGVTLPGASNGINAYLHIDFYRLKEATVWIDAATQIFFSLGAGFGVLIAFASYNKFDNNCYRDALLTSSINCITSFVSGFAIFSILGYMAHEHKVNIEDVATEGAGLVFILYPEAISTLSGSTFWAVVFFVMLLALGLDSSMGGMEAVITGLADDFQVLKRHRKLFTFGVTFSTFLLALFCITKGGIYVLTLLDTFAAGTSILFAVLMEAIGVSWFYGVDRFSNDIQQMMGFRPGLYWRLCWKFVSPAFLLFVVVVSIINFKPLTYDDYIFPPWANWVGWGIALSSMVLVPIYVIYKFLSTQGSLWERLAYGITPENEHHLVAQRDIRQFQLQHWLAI
T5 sequence (P28223 whole entry): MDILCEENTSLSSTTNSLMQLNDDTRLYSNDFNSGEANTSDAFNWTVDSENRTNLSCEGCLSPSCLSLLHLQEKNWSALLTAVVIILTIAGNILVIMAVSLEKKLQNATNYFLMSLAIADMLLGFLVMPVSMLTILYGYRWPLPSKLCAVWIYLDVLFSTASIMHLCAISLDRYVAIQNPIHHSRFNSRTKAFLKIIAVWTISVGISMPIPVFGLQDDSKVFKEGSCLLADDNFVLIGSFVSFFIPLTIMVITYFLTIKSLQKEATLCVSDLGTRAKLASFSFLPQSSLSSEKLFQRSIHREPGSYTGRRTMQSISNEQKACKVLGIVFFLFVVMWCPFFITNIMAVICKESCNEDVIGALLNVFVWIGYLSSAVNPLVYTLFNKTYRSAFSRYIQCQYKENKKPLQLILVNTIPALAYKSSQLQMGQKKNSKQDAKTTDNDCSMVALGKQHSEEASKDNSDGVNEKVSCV

Turning to `COc1cc(CC(C)N)c(OC)cc1C` (single isomer, unassigned; (-)) [DOM, (-)2,5-dimethoxy-4-methylamphetamine, reference compound], the Ki on hSERT [1] (read-out: Inhibition of [^125I]RTI-55 binding Ki, hSERT, mean ± sem, HEK-hSERT) was more than 100 µM; on hNET [2] (read-out: Inhibition of [^125I]RTI-55 binding Ki, hNET, mean ± sem, HEK-hNET), more than 100 µM; on human 5-HT1A receptor [7] (read-out: Inhibition of radioligand binding Ki, 5-HT1A [^3H]8OH-DPAT, mean ± sem, recombinant human 5-HT1A in HEK cells, agonist radioligand), 3.66 ± 0.47 µM; at 5-HT2A receptor [8] (read-out: Inhibition of radioligand binding Ki, 5-HT2A [^125I]DOI), 0.0183 µM; at hDAT [9] (read-out: Inhibition of [^125I]RTI-55 binding Ki, hDAT, mean ± sem, HEK-hDAT), more than 100 µM. For the same compound, the EC50 was more than 100 µM on hSERT [3] (read-out: Drug-induced release of [^3H]neurotransmitter EC50, hSERT [^3H]5-HT, mean ± sem, HEK-hSERT); 12.8 ± 4.7 µM on human 5-HT1A receptor [4] (read-out: EC50, 5-HT1A stimulation of [^35S]GTPγS binding, mean ± sem); more than 100 µM at hDAT [5] (read-out: Drug-induced release of [^3H]neurotransmitter EC50, hDAT [^3H]DA, mean ± sem, HEK-hDAT); 0.0399 µM on 5-HT2A receptor [6] (read-out: EC50, 5-HT2A stimulation of IP-1 formation); more than 42 µM at hNET [10] (read-out: Drug-induced release of [^3H]neurotransmitter EC50, hNET [^3H]NE, mean ± sem, HEK-hNET); 0.145 ± 0.047 µM on 5-HT2B receptor [11] (read-out: EC50, 5-HT2B stimulation of IP-1 formation, mean ± sem). Besides, at hSERT [3], the “% maximum release, hSERT [^3H]5-HT” value was 2.9 ± 3.4%. Also, on human 5-HT1A receptor [4] (setting [16]), the “% maximum stimulation, 5-HT1A stimulation of [^35S]GTPγS binding” value came out at 74 ± 25%. In addition, the “% maximum release, hDAT [^3H]DA” value at hDAT [5] was −0.20 ± 0.16%. Further, the “% maximum stimulation, 5-HT2A stimulation of IP-1 formation” value at 5-HT2A receptor [6] is reported as 39.9 ± 5.4 (3) 94.6 ± 4.1%. The “% maximum release, hNET [^3H]NE” value on hNET [10] came out at 25.5 ± 2.0%. In addition, the “% maximum stimulation, 5-HT2B stimulation of IP-1 formation” value at 5-HT2B receptor [11] (setting [16]) is on record as 96.2 ± 3.2%.
As to `NCCc1c[nH]c2ccc(O)cc12` [5-HT, Serotonin hydrochloride, reference compound], the values for the inhibitory constant (Ki) on hNET [2] and on hDAT [9] were 392 ± 10 µM and 375 ± 83 µM, respectively. For the same compound, the values for the IC50 at hNET [12] and on hDAT [13] were 7.2 ± 2.5 µM and 3.36 ± 0.32 µM, respectively.
Consider `COc1cc(CCNCc2ccccc2OC)c(OC)cc1C` [25D-NBOMe, 2-(2,5-dimethoxy-4-methylphenyl)-N-(2-methoxybenzyl)ethanamine], for which the Ki came to 0.00205 ± 0.00049 µM on 5-HT2B receptor [14]; 1.78 ± 0.28 µM at hSERT [1]; 6.7 ± 1.3 µM on hNET [2]; 4.51 ± 0.73 µM at human 5-HT1A receptor [7]; 0.00022 ± 2.6e-05 µM at 5-HT2A receptor [8]; 34.5 ± 4.2 µM at hDAT [9]. Moreover, the EC50 is 0.00137 ± 0.00036 µM on 5-HT2C receptor; more than 100 µM at hSERT [3]; 5.9 ± 1.9 µM at human 5-HT1A receptor [4]; more than 100 µM on hDAT [5]; 0.00153 ± 0.0001 µM on 5-HT2A receptor [6] (EC50, 5-HT2A stimulation of IP-1 formation, mean ± sem); more than 33 µM at hNET [10]. Moreover, at 5-HT2B receptor [11], a half-maximal effect (EC50) was put at 0.0323 ± 0.0068 µM. For the same compound, the Emax was 96.1% on 5-HT2C receptor (read-out: % maximum stimulation, 5-HT2C stimulation of IP-1 formation); 55% at human 5-HT1A receptor [4] (read-out: % maximum stimulation, 5-HT1A stimulation of [^35S]GTPγS binding); 95.1% on 5-HT2A receptor [6] (read-out: % maximum stimulation, 5-HT2A stimulation of IP-1 formation); 47.7% at 5-HT2B receptor [11] (read-out: % maximum stimulation, 5-HT2B stimulation of IP-1 formation). On hSERT [3], the “% maximum release, hSERT [^3H]5-HT” value is given as 0.59 ± 0.24%. Further, the “% maximum release, hDAT [^3H]DA” value at hDAT [5] is listed as 0.75 ± 0.48%. Also, the “Selectivity (functional ratios) 5-HT2A: 5-HT1A” value on 5-HT2A receptor [6] (ratio of EC50 values) was determined as 3900. Moreover, the “Selectivity (functional ratios) 5-HT2A: 5-HT2B” value at 5-HT2A receptor [6] (ratio of EC50 values) amounted to 21. Further, the “Selectivity (functional ratios) 5-HT2A: 5-HT2C” value at 5-HT2A receptor [6] (ratio of EC50 values) amounted to 0.90. The IC50 on hSERT [15] is 1.02 ± 0.078 µM; at hNET [12] it was 1.17 ± 0.14 µM; against hDAT [13] it was more than 85 µM. The “Selectivity (binding ratios) 5-HT2A : 5-HT1A” value on 5-HT2A receptor [8] (ratio of Ki values) stood at 20500. On 5-HT2A receptor [8] (ratio of Ki values), the “Selectivity (binding ratios) 5-HT2A : 5-HT2B” value is on record as 9.3. For the same compound, the “Selectivity (binding ratios) 5-HT2A : 5-HT2C” value on 5-HT2A receptor [8] (ratio of Ki values) stood at 3.1. Besides, the “% maximum release, hNET [^3H]NE” value at hNET [10] is given as 14.3 ± 8.5%.

As usually defined, the Ki is the equilibrium dissociation constant of an inhibitor or competing ligand from its target. For orientation: EC50 means the concentration giving half of the maximal effect. The term IC50 denotes the concentration needed to halve the response being measured.
